Measured values as given in US10030027B2, “Soluble guanylate cyclase stimulators” (MERCK SHARP & DOHME CORP., priority 2015, dated 2018).

What was measured:
sGC α1/β1 heterodimer = sGC α1/β1 heterodimer (Homo sapiens (Human), UniProt Q02108+Q02153); experiment: Cell-based sGC functional assay (cyclic GMP assay for sGC activator: CASA assay); details: CHO-K1/sGC cells; for Emax: CHO-K1, activity expressed as percentage of compound A (standard), read-out: % Activation; for EC50: inflection point, 4P fit, read-out: IP
In short: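 CHO-K1 cells stably expressing human sGC α1/β1 were pre-incubated 30 min at 25° C with or without 1 μM DETA-NO, then exposed to compound for 1 hr at 37° C with 0.5 mM IBMX and 2.5% DMSO final. Intracellular cGMP was measured by HTRF, expressed as % of reference sGC-HDA maximum; inflection point and maximum fold induction came from 4-parameter fits.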

[1] = molecular target: human recombinant sGC enzyme (Homo sapiens (Human), UniProt Q02108+Q02153); experiment: Size Exclusion Chromatography (SEC) competition binding assay using [3H] Ex-77B as the radioligand; details: [3H] Ex-77B radioligand, 24 hours at 37° C.
In short: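 Recombinant human sGC binding measured by competition against tritiated Ex-77B radioligand, with non-specific binding defined by 1 μM unlabeled Ex-77B.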

| SMILES | Emax (sGC α1/β1 heterodimer) [%] | EC50 (sGC α1/β1 heterodimer) [nM] | Ki [1] [nM] |
| --- | --- | --- | --- |
| CC1(c2ccc(CCC(=O)O)c(O)c2)C(=O)Nc2nc(-c3nn(CCC(F)(F)C(F)(F)F)c4cc(Cl)ccc34)nc(N)c21 (stereo not drawn) [Example 122B, 3-(4-{4-Amino-2-[6-chloro-1-(3,3,4,4,4-pentafluorobutyl)-1H-indazol-3-yl]-5-methyl-6-oxo-6,7-dihydro-5H-pyrrolo[2,3-d]pyrimidin-5-yl}-2-hydroxyphenyl)propanoic acid] | 115 | 895 | 0.326 |
| CC1(c2nc(CCC(F)(F)C(=O)O)co2)C(=O)Nc2nc(-c3nn(Cc4cccc(F)c4)c4cc(F)ccc34)nc(N)c21 (stereo not drawn) [Example 135A, 4-(2-{4-amino-2-[6-fluoro-1-(3-fluorobenzyl)-1H-indazol-3-yl]-5-methyl-6-oxo-6,7-dihydro-5H-pyrrolo[2,3-d]pyrimidin-5-yl}-1,3-oxazol-4-yl)-2,2-difluorobutanoic acid] | 92.9 | 254 | 0.275 |
| CC(C)(Cc1coc(C2(C3CC3)C(=O)Nc3nc(-c4nn(Cc5ccccc5F)c5cc(F)ccc45)nc(N)c32)n1)C(=O)O (stereo not drawn) [Example 139B, 3-(2-{4-amino-5-cyclopropyl-2-[6-fluoro-1-(2-fluorobenzyl)-1H-indazol-3-yl]-6-oxo-6,7-dihydro-5H-pyrrolo[2,3-d]pyrimidin-5-yl}-1,3-oxazol-4-yl)-2,2-dimethylpropanoic acid] | 135 | 3460 | 0.114 |
| CC(C)(Cn1cc(C2(C)C(=O)Nc3nc(-c4nn(CCC(F)(F)C(F)(F)F)c5ncccc45)nc(N)c32)cn1)C(=O)O (stereo not drawn) [Example 144A, 3-(4-{4-amino-5-methyl-6-oxo-2-[1-(3,3,4,4,4-pentafluorobutyl)-1H-pyrazolo[3,4-b]pyridin-3-yl]-6,7-dihydro-5H-pyrrolo [2,3-d]pyrimidin-5-yl}-1H-pyrazol-1-yl)-2,2-dimethyl-propanoic acid] | 93.1 | 1220 | 0.594 |
| CC(C)(Cn1cc(C2(C)C(=O)Nc3nc(-c4nn(Cc5ccccc5F)c5ncccc45)nc(N)c32)cn1)C(=O)O (stereo not drawn) [Example 145A, 3-(4-{4-amino-2-[1-(2-fluoro-benzyl)-1H-pyrazolo [3,4-b]pyridin-3-yl]-5-methyl-6-oxo-6,7-dihydro-5H-pyrrolo[2,3-d]pyrimidin-5-yl}-1H-pyrazol-1-yl)-2,2-dimethyl-propanoic acid] | 82.9 | 391 | 0.299 |
| CC1(c2nc(-c3ccc(C(=O)O)cc3)co2)C(=O)Nc2nc(-c3nn(Cc4ccccc4F)c4ncccc34)nc(N)c21 (stereo not drawn) [Example 146A, 4-(2-{4-amino-2-[1-(2-fluorobenzyl)-1H-pyrazolo[3,4-b]pyridin-3-yl]-5-methyl-6-oxo-6,7-dihydro-5H-pyrrolo [2,3-d]pyrimidin-5-yl}-1,3-oxazol-4-yl)benzoic acid] | 82.1 | 94 | 0.062 |
| CC1(c2nc(-c3ccc(C(=O)O)cc3)cs2)C(=O)Nc2nc(-c3nn(Cc4ccccc4F)c4ncccc34)nc(N)c21 (stereo not drawn) [Example 147A, 4-(2-{4-amino-2-[1-(2-fluorobenzyl)-1H-pyrazolo[3,4-b]pyridin-3-yl]-5-methyl-6-oxo-6,7-dihydro-5H-pyrrolo [2,3-d]pyrimidin-5-yl}-1,3-thiazol-4-yl)benzoic acid] | 73.4 | 61 | 0.075 |
| Nc1nc(-c2nn(Cc3ccccc3F)c3ncccc23)nc2c1C(c1ccc(CCC(=O)O)cc1)(C1CC1)C(=O)N2 (stereo not drawn) [Example 148A, 3-(4-{4-amino-5-cyclopropyl-2-[1-(2-fluorobenzyl)-1H-pyrazolo[3,4-b]pyridin-3-yl]-6-oxo-6,7-dihydro 5H-pyrrolo[2,3-d]pyrimidin-5-yl}phenyl)propanoic acid] | 87.8 | 238 | 0.123 |
| CC(C)(Cc1csc([C@]2(C)C(=O)Nc3nc(-c4nn(Cc5cccc(F)c5)c5ncccc45)nc(N)c32)n1)C(=O)O [Example 149A, (S)-3-(2-{4-amino-2-[1-(3-fluoro-benzyl)-1H-pyrazolo [3,4-b]pyridin-3-yl]-5-methyl-6-oxo-6,7-dihydro-5H-pyrrolo[2,3-d]pyrimidin-5-yl}-1,3-thiazol-4-yl)-2,2-dimethyl-propanoic acid] | 103 | 111 | 0.167 |

Continued, values first:

| Emax (sGC α1/β1 heterodimer) [%] | EC50 (sGC α1/β1 heterodimer) [nM] | Ki [1] [nM] | SMILES |
| --- | --- | --- | --- |
| 117 | 137 | 0.111 | CC(C)(Cc1nc(C2(C)C(=O)Nc3nc(-c4nn(Cc5ccccc5F)c5cc(Cl)ccc45)nc(N)c32)co1)C(=O)O (stereo not drawn) [Example 128A, 3-(4-{4-amino-2-[6-chloro-1-(2-fluorobenzyl)-1H-indazol-3-yl]-5-methyl-6-oxo-6,7-dihydro-5H-pyrrolo[2,3-d]pyrimidin-5-yl}-1,3-oxazol-2-yl)-2,2-dimethylpropanoic acid] |
| 98.5 | 51 | 0.117 | CC1(c2ccc(CCC(=O)O)cn2)C(=O)Nc2nc(-c3nn(Cc4ccccc4F)c4cc(Cl)ccc34)nc(N)c21 (stereo not drawn) [Example 129A, 3-(6-{4-amino-2-[6-chloro-1-(2-fluorobenzyl)-1H-indazol-3-yl]-5-methyl-6-oxo-6,7-dihydro-5H-pyrrolo[2,3-d]pyrimidin-5-yl}pyridin-3-yl)propanoic acid] |
| 116 | 1230 | 0.184 | CC1(c2nc3cc(C(=O)O)ccc3s2)C(=O)Nc2nc(-c3nn(Cc4ccccc4F)c4cc(Cl)ccc34)nc(N)c21 (stereo not drawn) [Example 130A, 2-{4-amino-2-[6-chloro-1-(2-fluorobenzyl)-1H-indazol-3-yl]-5-methyl-6-oxo-6,7-dihydro-5H-pyrrolo[2,3-d]pyrimidin-5-yl}-1,3-benzothiazole-5-carboxylic acid] |
| 120 | 1060 | 0.125 | CC(C)(Cc1ccc(C2(C)C(=O)Nc3nc(-c4nn(Cc5ccccc5F)c5cc(Cl)ccc45)nc(N)c32)nc1)C(=O)O (stereo not drawn) [Example 131B, 3-(6-{4-amino-2-[6-chloro-1-(2-fluorobenzyl)-1H-indazol-3-yl]-5-methyl-6-oxo-6,7-dihydro-5H-pyrrolo[2,3-d]pyrimidin-5-yl}pyridin-3-yl)-2,2-dimethylpropanoic acid] |
| 114 | 375 | 0.058 | CC(C)(Cc1coc(C2(C3CC3)C(=O)Nc3nc(-c4nn(Cc5ccccc5F)c5cc(Cl)ccc45)nc(N)c32)n1)C(=O)O (stereo not drawn) [Example 138B, 3-(2-{4-amino-2-[6-chloro-1-(2-fluorobenzyl)-1H-indazol-3-yl]-5-cyclopropyl-6-oxo-6,7-dihydro-5H-pyrrolo[2,3-d]pyrimidin-5-yl}-1,3-oxazol-4-yl)-2,2-dimethylpropanoic acid] |
| 109 | 264 | 0.183 | CC(C)(Cc1nc(C2(C)C(=O)Nc3nc(-c4nn(Cc5ccccc5F)c5cc(Cl)ccc45)nc(N)c32)cs1)C(=O)O (stereo not drawn) [Example 142B, 3-(4-{4-amino-2-[6-chloro-1-(2-fluoro-benzyl)-1H-indazol-3-yl]-5-methyl-6-oxo-6,7-dihydro-5H-pyrrolo[2,3-d]pyrimidin-5-yl}-1,3-thiazol-2-yl)-2,2-dimethyl-propanoic acid] |
| 76.1 | 3380 | 0.174 | CC1(c2ccnc(C(=O)O)c2)C(=O)Nc2nc(-c3nn(Cc4ccccc4F)c4cc(Cl)ccc34)nc(N)c21 (stereo not drawn) [Example 143B, 4-{4-amino-2-[6-chloro-1-(2-fluoro-benzyl)-1H-indazol-3-yl]-5-methyl-6-oxo-6,7-dihydro-5H-pyrrolo[2,3-d]pyrimidin-5-yl} pyridine-2-carboxylic acid] |
